In PubChem BioAssay AID1259407 (Chemical Carcinogenesis Research Information System (CCRIS), 2018):
Active and inactive are the calls of the source. No rule for the calls is given here.

Test system: CCRIS mutagenicity, Ames/micronucleus/aberration tests
Test: CCRIS mutagenicity studies
[1] = Test System: AMES SALMONELLA TYPHIMURIUM, Strain/Indicator: TA98, Metabolic Activation: NONE, Method: STANDARD PLATE

Compound: CCC1CO1 (stereo not drawn)
- mutagenic call (End Point: IN VITRO CHROMOSOMAL ABERRATIONS, Test System: CHO CELLS, Metabolic Activation: NONE): inactive; negative; authors report a positive response at the highest dose but few cells c
- mutagenic call (End Point: IN VITRO CHROMOSOMAL ABERRATIONS, Test System: HUMAN PERIPHERAL LYMPHOCYTES, Metabolic Activation: NONE, Method: FISH (DUAL COLOR FOR CHROMOSOMES 7, 8, 12 AND X)): active; positive (hyperdiploidy of chromosomes 12 and x)
- mutagenic call (End Point: IN VITRO MICRONUCLEUS, Test System: HUMAN PERIPHERAL LYMPHOCYTES, Metabolic Activation: NONE): active; positive
- mutagenic call (Test System: AMES SALMONELLA TYPHIMURIUM, Strain/Indicator: TA98, Metabolic Activation: HAMSTER, LIVER, S-9, AROCLOR 1254, Method: PREINCUBATION): inactive; negative
- mutagenic call (Test System: AMES SALMONELLA TYPHIMURIUM, Strain/Indicator: TA98, Metabolic Activation: NONE, Method: FLUCTUATION (MICROTITER)): inactive; negative
- mutagenic call (Test System: AMES SALMONELLA TYPHIMURIUM, Strain/Indicator: TA98, Metabolic Activation: NONE, Method: PREINCUBATION): inactive; negative
- mutagenic call [1]: inactive; negative
- mutagenic call (Test System: AMES SALMONELLA TYPHIMURIUM, Strain/Indicator: TA98, Metabolic Activation: RAT LIVER S-9, AROCLOR 1254, Method: FLUCTUATION (MICROTITER)): inactive; negative
- mutagenic call (Test System: AMES SALMONELLA TYPHIMURIUM, Strain/Indicator: TA98, Metabolic Activation: RAT, LIVER, S-9, AROCLOR 1254, Method: PREINCUBATION): inactive; negative
- mutagenic call (Test System: AMES SALMONELLA TYPHIMURIUM, Strain/Indicator: TA100, Metabolic Activation: HAMSTER, LIVER, S-9, AROCLOR 1254, Method: PREINCUBATION): active; positive
- mutagenic call (Test System: AMES SALMONELLA TYPHIMURIUM, Strain/Indicator: TA100, Metabolic Activation: NONE, Method: PREINCUBATION): active; positive
- mutagenic call (Test System: AMES SALMONELLA TYPHIMURIUM, Strain/Indicator: TA100, Metabolic Activation: RAT, LIVER, S-9, AROCLOR 1254, Method: PREINCUBATION): active; positive
- mutagenic call (Test System: AMES SALMONELLA TYPHIMURIUM, Strain/Indicator: TA1535, Metabolic Activation: HAMSTER, LIVER, S-9, AROCLOR 1254, Method: PREINCUBATION): active; positive
- mutagenic call (Test System: AMES SALMONELLA TYPHIMURIUM, Strain/Indicator: TA1535, Metabolic Activation: NONE, Method: PREINCUBATION): active; positive
- mutagenic call (Test System: AMES SALMONELLA TYPHIMURIUM, Strain/Indicator: TA1535, Metabolic Activation: NONE, Method: STANDARD PLATE): active; positive
- mutagenic call (Test System: AMES SALMONELLA TYPHIMURIUM, Strain/Indicator: TA1535, Metabolic Activation: RAT, LIVER, S-9, AROCLOR 1254, Method: PREINCUBATION): active; positive
- mutagenic call (Test System: AMES SALMONELLA TYPHIMURIUM, Strain/Indicator: TA1537, Metabolic Activation: HAMSTER, LIVER, S-9, AROCLOR 1254, Method: PREINCUBATION): inactive; negative
- mutagenic call (Test System: AMES SALMONELLA TYPHIMURIUM, Strain/Indicator: TA1537, Metabolic Activation: NONE, Method: FLUCTUATION (MICROTITER)): inactive; negative
- mutagenic call (Test System: AMES SALMONELLA TYPHIMURIUM, Strain/Indicator: TA1537, Metabolic Activation: NONE, Method: PREINCUBATION): inactive; negative
- mutagenic call (Test System: AMES SALMONELLA TYPHIMURIUM, Strain/Indicator: TA1537, Metabolic Activation: RAT LIVER S-9, AROCLOR 1254, Method: FLUCTUATION (MICROTITER)): inactive; negative
- mutagenic call (Test System: AMES SALMONELLA TYPHIMURIUM, Strain/Indicator: TA1537, Metabolic Activation: RAT, LIVER, S-9, AROCLOR 1254, Method: PREINCUBATION): inactive; negative
- mutagenic call (Test System: AMES SALMONELLA TYPHIMURIUM, Strain/Indicator: TA7001, Metabolic Activation: NONE, Method: FLUCTUATION (MICROTITER)): inactive; negative
- mutagenic call (Test System: AMES SALMONELLA TYPHIMURIUM, Strain/Indicator: TA7001, Metabolic Activation: RAT LIVER S-9, AROCLOR 1254, Method: FLUCTUATION (MICROTITER)): inactive; negative
- mutagenic call (Test System: AMES SALMONELLA TYPHIMURIUM, Strain/Indicator: TA7002, Metabolic Activation: NONE, Method: FLUCTUATION (MICROTITER)): inactive; negative
- mutagenic call (Test System: AMES SALMONELLA TYPHIMURIUM, Strain/Indicator: TA7002, Metabolic Activation: RAT LIVER S-9, AROCLOR 1254, Method: FLUCTUATION (MICROTITER)): inactive; negative
- mutagenic call (Test System: AMES SALMONELLA TYPHIMURIUM, Strain/Indicator: TA7003, Metabolic Activation: NONE, Method: FLUCTUATION (MICROTITER)): inactive; negative
- mutagenic call (Test System: AMES SALMONELLA TYPHIMURIUM, Strain/Indicator: TA7003, Metabolic Activation: RAT LIVER S-9, AROCLOR 1254, Method: FLUCTUATION (MICROTITER)): inactive; negative
- mutagenic call (Test System: AMES SALMONELLA TYPHIMURIUM, Strain/Indicator: TA7004, Metabolic Activation: NONE, Method: FLUCTUATION (MICROTITER)): active; positive
- mutagenic call (Test System: AMES SALMONELLA TYPHIMURIUM, Strain/Indicator: TA7004, Metabolic Activation: RAT LIVER S-9, AROCLOR 1254, Method: FLUCTUATION (MICROTITER)): inactive; negative
- mutagenic call (Test System: AMES SALMONELLA TYPHIMURIUM, Strain/Indicator: TA7005, Metabolic Activation: NONE, Method: FLUCTUATION (MICROTITER)): inactive; negative
- mutagenic call (Test System: AMES SALMONELLA TYPHIMURIUM, Strain/Indicator: TA7005, Metabolic Activation: RAT LIVER S-9, AROCLOR 1254, Method: FLUCTUATION (MICROTITER)): inactive; negative
- mutagenic call (Test System: AMES SALMONELLA TYPHIMURIUM, Strain/Indicator: TA7006, Metabolic Activation: NONE, Method: FLUCTUATION (MICROTITER)): inactive; negative
- mutagenic call (Test System: AMES SALMONELLA TYPHIMURIUM, Strain/Indicator: TA7006, Metabolic Activation: RAT LIVER S-9, AROCLOR 1254, Method: FLUCTUATION (MICROTITER)): inactive; negative
- mutagenic call (Test System: E. COLI, Strain/Indicator: WP2 UVRA, Metabolic Activation: HAMSTER, LIVER, S-9, AROCLOR 1254, Method: PREINCUBATION): inactive; negative
- mutagenic call (Test System: E. COLI, Strain/Indicator: WP2 UVRA, Metabolic Activation: HAMSTER, LIVER, S-9, AROCLOR 1254, Method: STANDARD PLATE): inactive; negative
- mutagenic call (Test System: E. COLI, Strain/Indicator: WP2 UVRA, Metabolic Activation: HAMSTER, LIVER, S-9, Method: STANDARD PLATE): inactive; negative
- mutagenic call (Test System: E. COLI, Strain/Indicator: WP2 UVRA, Metabolic Activation: MOUSE, LIVER, S-9, AROCLOR 1254, Method: PREINCUBATION): inactive; negative
- mutagenic call (Test System: E. COLI, Strain/Indicator: WP2 UVRA, Metabolic Activation: MOUSE, LIVER, S-9, AROCLOR 1254, Method: STANDARD PLATE): inactive; negative
- mutagenic call (Test System: E. COLI, Strain/Indicator: WP2 UVRA, Metabolic Activation: MOUSE, LIVER, S-9, Method: PREINCUBATION): inactive; negative
- mutagenic call (Test System: E. COLI, Strain/Indicator: WP2 UVRA, Metabolic Activation: MOUSE, LIVER, S-9, Method: STANDARD PLATE): inactive; negative
- mutagenic call (Test System: E. COLI, Strain/Indicator: WP2 UVRA, Metabolic Activation: NONE, Method: PREINCUBATION): inactive; negative
- mutagenic call (Test System: E. COLI, Strain/Indicator: WP2 UVRA, Metabolic Activation: NONE, Method: STANDARD PLATE): inactive; negative
- mutagenic call (Test System: E. COLI, Strain/Indicator: WP2 UVRA, Metabolic Activation: RAT, LIVER, S-9, AROCLOR 1254, Method: PREINCUBATION): inactive; negative
- mutagenic call (Test System: E. COLI, Strain/Indicator: WP2 UVRA, Metabolic Activation: RAT, LIVER, S-9, AROCLOR 1254, Method: STANDARD PLATE): inactive; negative
- mutagenic call (Test System: E. COLI, Strain/Indicator: WP2 UVRA, Metabolic Activation: RAT, LIVER, S-9, Method: PREINCUBATION): inactive; negative
- mutagenic call (Test System: E. COLI, Strain/Indicator: WP2 UVRA, Metabolic Activation: RAT, LIVER, S-9, Method: STANDARD PLATE): inactive; negative

Compound: O=[N+]([O-])c1c2c(c3ccc4cccc5ccc1c3c45)CCCC2
- mutagenic call [1]: inactive; negative
- mutagenic call (Test System: AMES SALMONELLA TYPHIMURIUM, Strain/Indicator: TA100, Metabolic Activation: NONE, Method: STANDARD PLATE): inactive; negative
